System: HL60 cells
Assay: Anti-proliferation on HL60 cells (CellTiter-Glo, 3 days)
Format: cell-based
Settings: Homo sapiens, HL-60, 72 h, 3 days incubation, CTG luminescence, IC50 by XLfit, read-out: HL60 cells Proliferation inhibitory activity
Description: HL60 cells (Cell Bank of Chinese Academy of Sciences) in the logarithmic growth phase were counted and plated evenly in a 96-well transparent bottom white plate at 20000 cells per well and 100 μL per well.
A certain amount of the compound of the present invention was weighed and diluted with DMSO to a 10 mM stock solution. The culture medium RPMI-1640 (meilunbio, MA0215) corresponding to the cells were taken, and the compound was diluted to the concentration required by the test, shaken gently and mixed evenly. 50 μL of the gradient dilution of the diluted compound was added to each well of the plated cells, and 50 μL of 0.1% DMSO was added to the control group. The plate was shaken gently, mixed evenly and incubated in a cell culture incubator for 3 days.
• 3.1 The CellTiter-Glo™ (CTG) (purchased from Promega, Cat. No. G9242) reagent was taken in advance from the −20° C. refrigerator and equilibrated to room temperature in the dark. Cell Titer-Glo buffer and Cell Titer-Glo substrate were mixed at a ratio of 1:1 to prepare a CTG detection reagent. • 3.2 The 96-well plate was taken out and inspected under a microscope for growth. • 3.3 The bottom of the 96-well plate was tagged with white paper, and then the plate was wrapped with tin foil paper, shaken at 37° C. at 300 r for 10 min and mixed evenly. • 3.4. 50 μL of CTG detection reagent was added to each well, Luminescence signal was detected using a microplate reader Biotek Synergy Hi, and the inhibition rate was calculated. IC50 values of the compounds were calculated by XLfit 5.5.0 software to evaluate the proliferation inhibitory activity on HL60 cells.

SMILES | IC50
O=C1CCC(N2Cc3cc(NC(=O)CC4CCN(c5cnc(-c6cccc7ccccc67)cn5)CC4)ccc3C2=O)C(=O)N1 (stereo not drawn) [Compound A31] | < 0.2 nM
Cc1cccc(-c2cnc(N3CCC(CNCc4ccc5c(c4)CN([C@H]4CCC(=O)NC4=O)C5=O)CC3)c(C(F)(F)F)c2)c1 [Compound A123] | < 3.04 nM
O=C1CCC(N2C(=O)c3cccc4c(CNCC5CCN(c6ncc(-c7cccc(Cl)c7)cc6C(F)(F)F)CC5)ccc2c34)C(=O)N1 (stereo not drawn) [Compound A174] | 3920 nM
O=C1CCC(N2Cc3cc(NC(=O)CC4CCN(c5ccc(-c6cccc(C(F)(F)F)c6)cn5)CC4)ccc3C2=O)C(=O)N1 (stereo not drawn) [Compound A58] | < 0.2 nM
CC(C)c1cnc(N2CCC(CC(=O)Nc3ccc4c(c3)CN(C3CCC(=O)NC3=O)C4=O)CC2)nc1 (stereo not drawn) [Compound A50] | 0.6 nM
CN(C(=O)c1ccc(CNCC2CCN(c3ncc(-c4cccc(Cl)c4)cc3C(F)(F)F)CC2)cc1)C1CCC(=O)NC1=O (stereo not drawn) [Compound A163] | 8220 nM
O=C1CCC(N2Cc3c(ccc(CNCC4CCN(c5ncc(-c6cccc(Cl)c6)cc5C(F)(F)F)CC4)c3F)C2=O)C(=O)N1 (stereo not drawn) [Compound A139] | 17.7 nM
O=C1CCC(NC(=O)c2ccc(CNCC3CCN(c4ncc(-c5cccc(Cl)c5)cc4C(F)(F)F)CC3)nc2)C(=O)N1 (stereo not drawn) [Compound A157] | 11700 nM
O=C1CCC(N2Cc3cc(C(=O)NCC4CCN(c5ncc(-c6ccc7ccccc7c6)cn5)CC4)ccc3C2=O)C(=O)N1 (stereo not drawn) [Compound A39] | 2.6 nM
O=C(CC1CCN(c2ncc(-c3cccc4ccccc34)cn2)CC1)Nc1ccc2c(c1)CN(C1CCC(=O)N(COP(=O)(O)O)C1=O)C2=O (stereo not drawn) [Compound A117] | 12 nM
O=C1CCC(n2nc3cc(CNCC4CCN(c5ncc(-c6cccc(F)c6)cc5F)CC4)ccn3c2=O)C(=O)N1 (stereo not drawn) [Compound A147] | 12300 nM
O=C1CCC(N2C(=O)c3cc4c(cc3C2=O)CN(CC2CCN(c3ncc(-c5cccc(Cl)c5)cc3C(F)(F)F)CC2)C4)C(=O)N1 (stereo not drawn) [Compound A138] | 1100 nM
O=C1CCC(N2Cc3cc(C(=O)NCC4CCN(c5ccc(-c6cccc7cccnc67)nc5)CC4)ccc3C2=O)C(=O)N1 (stereo not drawn) [Compound A44] | 5 nM
Cc1nc2cc(CNCC3CCN(c4ncc(-c5cccc(Cl)c5)cc4C(F)(F)F)CC3)ccc2c(=O)n1C1CCC(=O)NC1=O (stereo not drawn) [Compound A152] | 7320 nM
O=C1CCC(N2Cc3cc(CNCC4CCN(c5ncc(-n6c7ccccc7c7ccccc76)cc5C(F)(F)F)CC4)ccc3C2=O)C(=O)N1 (stereo not drawn) [Compound A129] | 120 nM
O=C1CCC(N2Cc3cc(C(=O)NCC4CCN(c5ccc(-c6nccc7ccccc67)cn5)CC4)ccc3C2=O)C(=O)N1 (stereo not drawn) [Compound A45] | < 0.2 nM
O=C1CCC(N2Cc3cc(C(=O)NCC4CCN(c5cccc(-c6cccc7ccccc67)c5)CC4)ccc3C2=O)C(=O)N1 (stereo not drawn) [Compound A21] | 2.9 nM
O=C1CCC(N2Cc3cc(C(=O)NCC4CCN(c5cc(-c6cccc7ccccc67)ccn5)CC4)ccc3C2=O)C(=O)N1 (stereo not drawn) [Compound A16] | 1.5 nM
O=C1CCC(N2Cc3cc(CCCN4CCN(c5ncc(-c6cccc(Cl)c6)cc5C(F)(F)F)CC4)ccc3C2=O)C(=O)N1 (stereo not drawn) [Compound A135] | 25.7 nM
O=C1CCC(N2Cc3cc(NC(=O)CC4CCN(c5ncc(-c6ccc(Cl)cc6)cn5)CC4)ccc3C2=O)C(=O)N1 (stereo not drawn) [Compound A55] | < 0.2 nM
O=C1CCC(c2coc3cc(CNCC4CCN(c5ncc(-c6cccc(Cl)c6)cc5C(F)(F)F)CC4)ccc23)C(=O)N1 (stereo not drawn) [Compound A149] | 1740 nM
O=C1CCC(NC(=O)c2ccc(CNCC3CCN(c4ncc(-c5cccc(Cl)c5)cc4C(F)(F)F)CC3)c(F)c2)C(=O)N1 (stereo not drawn) [Compound A159] | 6700 nM
COc1cccc(-c2cnc(N3CCC(F)(CNCc4ccc5c(c4)CN(C4CCC(=O)NC4=O)C5=O)CC3)c(C(F)(F)F)c2)c1 (stereo not drawn) [Compound A121] | 4.69 nM

SMILES | IC50
O=C1CCC(N2Cc3cc(NC(=O)CC4CCN(c5cccc(-c6cccc7ccccc67)c5)CC4)ccc3C2=O)C(=O)N1 (stereo not drawn) [Compound A22] | 4 nM
O=C1CCC(N2Cc3cc(CNCC4CCN(c5ncc(-c6ccccn6)cc5F)CC4)ccc3C2=O)C(=O)N1 (stereo not drawn) [Compound A106] | 878 nM
Cc1nc2ccc(CNCC3CCN(c4ncc(-c5cccc(Cl)c5)cc4C(F)(F)F)CC3)cc2c(=O)n1C1CCC(=O)NC1=O (stereo not drawn) [Compound A151] | 687 nM
Cc1ccc(N2CCN(Cc3ccc(C(=O)NCc4ccc5c(c4)CN(C4CCC(=O)NC4=O)C5=O)cc3)CC2)cc1Cl (stereo not drawn) [Compound A130] | 0.54 nM
O=C1CCC(N2Cc3cc(CNCC4CCN(c5ncc(-c6cccc(Cl)c6)cc5[N+](=O)[O-])CC4)ccc3C2=O)C(=O)N1 (stereo not drawn) [Compound A78] | 3 nM
O=C1CCC(N2Cc3cc(CNCC4CCN(c5ncc(-c6cc(F)cc(Cl)c6)cc5C(F)(F)F)CC4)ccc3C2=O)C(=O)N1 (stereo not drawn) [Compound A115] | 1.5 nM
O=C1CCC(N2Cc3cc(NC(=O)CC4CCN(c5ccc(-c6cccc(Cl)c6)nc5)CC4)ccc3C2=O)C(=O)N1 (stereo not drawn) [Compound A57] | < 0.2 nM
O=C1CCC(NC(=O)c2ccc(CNCC3CCN(c4ncc(-c5cccc(Cl)c5)cc4C(F)(F)F)CC3)c(Br)c2)C(=O)N1 (stereo not drawn) [Compound A160] | 1100 nM
Cn1nc(N2CCC(=O)NC2=O)c2cc(CNCC3CCN(c4ncc(-c5cccc(Cl)c5)cc4C(F)(F)F)CC3)ccc21 [Compound A176] | 5210 nM
O=C1CCC(NC(=O)c2ccc(C(=O)NCC3CCN(c4ncc(-c5cccc(Cl)c5)cc4C(F)(F)F)CC3)cc2)C(=O)N1 (stereo not drawn) [Compound A166] | 2670 nM
O=C1CCC(N2Cc3cc(CNCC4(F)CCN(c5ncc(-c6cccc(F)c6)cc5F)CC4)ccc3C2=O)C(=O)N1 (stereo not drawn) [Compound A122] | 1.76 nM
O=C1CCC(N2Cc3cc(CNCC4CCN(c5cc(F)c(-c6cccc(Cl)c6)cn5)CC4)ccc3C2=O)C(=O)N1 (stereo not drawn) [Compound A101] | 10.9 nM
O=C1CCC(N2Cc3c(csc3CNCC3CCN(c4ncc(-c5cccc(Cl)c5)cc4C(F)(F)F)CC3)C2=O)C(=O)N1 (stereo not drawn) [Compound A143] | 3040 nM
Cc1cc(-c2cccc(Cl)c2)cnc1N1CCC(CNCc2ccc3c(c2)CN(C2CCC(=O)NC2=O)C3=O)CC1 (stereo not drawn) [Compound A76] | < 0.2 nM
NC(=O)c1cc(-c2cccc(Cl)c2)cnc1N1CCC(CNCc2ccc3c(c2)CN(C2CCC(=O)NC2=O)C3=O)CC1 (stereo not drawn) [Compound A99] | 1.2 nM
O=C1CCC(N2Cc3cc(C(=O)NCC4CCN(c5cncc(-c6cccc7ccccc67)c5)CC4)ccc3C2=O)C(=O)N1 (stereo not drawn) [Compound A18] | 5.5 nM
O=C1CCC(NC(=O)Cc2ccc(CNCC3CCN(c4ncc(-c5cccc(Cl)c5)cc4C(F)(F)F)CC3)cc2)C(=O)N1 (stereo not drawn) [Compound A167] | 9580 nM
O=C1C[C@H](N2Cc3cc(CNCC4CCN(c5ncc(-c6cccc(F)c6)cc5C(F)(F)F)CC4)ccc3C2=O)C(=O)N1 [Compound A172] | 9990 nM
O=C1CCC(N2Cc3cc(NC(=O)CC4CCN(c5ccc(-c6cccc(Cl)c6)cn5)CC4)ccc3C2=O)C(=O)N1 (stereo not drawn) [Compound A56] | < 0.2 nM
O=C1CCC(NC(=O)c2ccc(CNCC3CCN(c4ncc(-c5cccc(Cl)c5)cc4C(F)(F)F)CC3)cn2)C(=O)N1 (stereo not drawn) [Compound A156] | 268 nM
O=C1CCC(N2Cc3cc(C(=O)NCC4CCN(C(=O)NCCn5c6ccccc6c6cccnc65)CC4)ccc3C2=O)C(=O)N1 (stereo not drawn) [Compound A2] | 58 nM
O=C1CCC(n2nnc3ccc(CNCC4CCN(c5ncc(-c6cccc(Cl)c6)cc5C(F)(F)F)CC4)cc3c2=O)C(=O)N1 (stereo not drawn) [Compound A154] | 116 nM

— patent US20250059162A1, “MULTI-PROTEIN DEGRADATION AGENT HAVING IMIDE SKELETON” (SUZHOU KINTOR PHARMACEUTICALS, INC., priority 2021, published 2025)
